Several values for one entry are separate records, joined by “and”; a condition that tells them apart may be missing. Identical values can stand only once.
Key:
[1] = system: CPPs; experiment: TEM and selected area electron diffraction of CPPs; set-up: species or system human; settings: 100 µM, 14 h, 37 °C
Experimental: To confirm the screening assay data, the hydrodynamic diameter of the CPPs was measured by dynamic light scattering (DLS). […] The CPP2 size deduced by DLS is slightly larger than the size derived from transmission electron microscopy (TEM) (Supplementary Figs. 4c and 7a), the latter being in line with previous work[52].
CPPs were prepared (vide supra) and TEM was performed similar to previous reports. […] […] Herein, cell culture grade 50 mM HEPES (1 M HEPES, 5630056, Thermo Fischer Scientific) was used for washing steps, to avoid high solvent and particle background in TEM. In brief, CPPs at 0.5 mg calcium/mL were drop-casted onto a copper grid, 300 mesh, covered with a continuous 8-nm-thick carbon film. The TEM data were collected with an FEI Tecnai F30 FEG TEM operated at 300 kV acceleration voltage and equipped with a Gatan 749 MultiScan CCD camera (Thermo Fischer Scientific). The bright-field images were collected at ×39,000 magnification using a 10-μm objective aperture. To assess the crystallinity of the sample selected area diffraction patterns were collected in parallel at a camera length of 300 mm. The radii of the rings in the diffraction pattern were measured (1/nm) and the associated interplanar d-spacings (nm) were calculated.

[2] = PK in healthy rats, s.c.; type: in vivo, male Sprague-Dawley rats; settings: for plasma concentration: unit not given
[3] = system: primary human VSMCs; experiment: VSMC viability (MTS) in high-CaP medium; type: cell-based
[4] = VSMC viability (MTS) in high-CaP medium; type: cell-based, human; settings: human, primary human VSMCs, read-out: VSMC viability (MTS), % of medium control
[5] = PK in healthy rats, i.v. bolus; type: in vivo, male Sprague-Dawley rats
Experimental: All PK studies in healthy animals were performed by the contract research organization Aphad S.r.l. (Milan, Italy). In all studies, compounds were administered as a salt, and the doses and plasma quantitation refer to the acid form. PK parameters listed in Supplementary Table 13 were derived from measured plasma concentrations applying noncompartmental analysis. Concentration data were extrapolated using the software Analyst™ 6.1 (Applied Biosystems, Foster City, CA, USA), the area under the plasma concentration vs. time curve (AUC) was calculated by linear trapezoidal rule using PK solver 2.0 add-in for Microsoft Excel 2007 (available for download in[83]), and a uniform weight was performed as a first general approach.
To study PK in healthy animals, male Sprague-Dawley rats (Harlan, Correzzana, Italy) were housed up to three per cage with free access to water and standard chow (pellets 12 mm, global diet 2018 certificate, Mucedola, Srl, Settimo Milanese, Italy), and submitted to a 12-h light/dark cycle. Animals were administered i.v. 10 mg/kg of (OEG2)2-IP4 in saline solution i.v. (30 s bolus, 5 mL/kg) and s.c. (5 mL/kg), respectively, in three animals per route and treatment. […] Plasma calcium concentration was determined in pre-dose samples and in t = 30 min samples of both acute and chronic treatments using the calcium colorimetric assay. Blood samples of 100 µL were drawn at several time points from the caudal vein, centrifuged at (3000 × g, 4 °C, 10 min) and stored at −80 °C until analysis by liquid chromatography–tandem mass spectrometry (LC-MS/MS).
The column used for (OEG2)2-IP4 was Kinetex C8 50 × 2.1 mm, 2.6 μm 100 A (Phenomenex, Basel, Switzerland), thermostated at 35 °C. […] Quantitation was carried out as total ion current on the sum of the MRM transitions. […] Samples were agitated 5 min on a […] orbital shaker and centrifuged (16,000 × g, 5 °C, 20 min). […] Samples were then subjected to LC-MS/MS. Rat PK samples were prepared for analysis in an analogous manner as done for spiked samples. The lower limit of quantification (LLOQ) and detection (LOD) in rat plasma for (OEG2)2-IP4 were 25 and 10 ng/mL, respectively. The upper limit of quantification (ULOQ) and detection was 5000 ng/mL.

[6] = system: primary human VSMCs; experiment: CPP1-induced VSMC calcium deposition; type: cell-based; settings: CPP1 50 µg Ca/mL
Experimental: Calcium deposition on cell monolayers was assessed qualitatively by staining for calcium with 2% w/v Alizarin Red S aqueous solution (pH 4.2) (05600, Fluka Analytical). Cell monolayers in 24-well plates were washed with PBS (10010015, Thermo Fischer), fixed in 10% v/v NBF in PBS (F8775, Sigma-Aldrich) for 45 min at RT, washed with milli-Q water, incubated for 3 min with 300 µL Alizarin Red S solution, washed with milli-Q, and images were acquired using a Axiovert 35 microscope (Zeiss, Carl Zeiss Microscopy GmbH, Jena, Germany) at ×100 magnification. Calcium quantitation was performed after washing cells with PBS and then decalcifying cell monolayers with 0.1 M HCl overnight at 4 °C. Acidic supernatants were centrifuged (10,000 × g, 4 °C, 10 min) and calcium content was assessed using the calcium colorimetric assay.

[7] = male, Sprague-Dawley, rat, plasma, sc, 100 mg/kg s.c.

SMILES: O=P(O)(O)O[C@H]1[C@H](OP(=O)(O)O)[C@@H](OP(=O)(O)O)[C@H](OP(=O)(O)O)[C@@H](OP(=O)(O)O)[C@H]1OP(=O)(O)O [IP6, myo-Inositol hexakisphosphate]
- CPP morphology (TEM) [1]: spindle-shaped CPP2s
- plasma concentrations (below lower limit of quantification) ([2]; 10 mg/kg s.c.): < 0.772 µM
- Cmax ([2]; 10 mg/kg s.c., LLOQ = 772 nM): < LLOQ
- plasma concentration ([2]; 100 mg/kg s.c., 5 min): 20.1 and 17.5 and 23.6
- plasma concentration ([2]; 100 mg/kg s.c., 0.5 h): 13.6 and 19.8 and 10.3
- AUC(0-inf) [2, 7]: 22.4 µM·h
- Tmax [2, 7]: 12 min
- half-life [2, 7]: 29 ± 15 min
- AUC(0-t) ([2]; male, Sprague-Dawley, rat, plasma, sc, 100 mg/kg s.c., t = 90 min (Fig. 4d; tlast 360 in Suppl. Table 2)): 19.4 µM·h
- Cmax ([2]; male, Sprague-Dawley, rat, plasma, sc, 100 mg/kg s.c., read-out: Cmax): 33 ± 10 µM
- MRT ([2]; male, Sprague-Dawley, rat, plasma, sc, read-out: mean residence time (MRT) (converted)): 45 min
- VSMC viability (MTS), % of medium control ([3]; 0.01 µM in high-CaP medium, replicates Fig. 3d): 67.31% and 30.78% and 56.19%
- VSMC viability (MTS), % of medium control ([3]; 0.1 µM in high-CaP medium): 69.48% and 36.65% and 58.54%
- VSMC viability (MTS), % of medium control ([3]; 1 µM in high-CaP medium): 54.02% and 63.76%
- VSMC viability (MTS), % of medium control ([3]; 10 µM in high-CaP medium): 84.96% and 80.54%
- VSMC viability (MTS), % of medium control ([3]; 100 µM in high-CaP medium): 97.34% and 86.99%
- viability at 5 days, 1 µM ([4]; 1 µM in high-CaP medium): 68.8%
- viability at 5 days, 10 µM ([4]; 10 µM in high-CaP medium): 69.9%
- viability at 5 days, 100 µM ([4]; 100 µM in high-CaP medium): 78.7%
- Clobs ([5]; 10 mg/kg i.v.): 68.5 ± 21.2 mL/min/kg
- plasma concentration ([5]; 10 mg/kg i.v., 5 min, individual rats Fig. 4a, unit not printed (µM per Fig. 4b)): 13.9 and 17.5 and 6.9 and 6.5 and 5.5 and 5.1
- half-life ([5]; Sprague-Dawley, rat, plasma, iv, 10 mg/kg i.v. bolus, healthy male rats): 8 ± 2 min
- Cmax ([5]; male, Sprague-Dawley, rat, plasma, iv, 10 mg/kg i.v.): 13 ± 6 µM
- Vd ([5]; male, Sprague-Dawley, rat, plasma, iv, 10 mg/kg i.v. bolus, read-out: apparent volume of distribution): 0.958 ± 0.405 L/kg
- AUC(0-t) ([5]; male, Sprague-Dawley, rat, plasma, iv, 10 mg/kg i.v., t = 30 min): 3.77 µM·h
- MRT ([5]; male, Sprague-Dawley, rat, plasma, iv, 10 mg/kg i.v., read-out: mean residence time (MRT) (converted)): 14 min
- VSMC calcium deposition (CPP2 = 100) ([6]; 3 µM): 82.15% and 53.35% and 45.33%
- VSMC calcium deposition (CPP2 = 100) ([6]; 100 µM): 138.44% and 188.13% and 99%
